Legend:
[1] = Stability under accelerated aging conditions (40±2° C./75±5% RH); type: physicochemical; parameters: key to Related Substances by HPLC: a. C07102401-F-Imp1 / Related Substances by HPLC: b. C07102401-F-Imp2 / Related Substances by HPLC: c. Any unspecified impurity / Related Substances by HPLC: d. Total impurities: BDRL: below disregard limit; conditions: for Description / Identification by FT-IR / Identification by XRPD / Related Substances by HPLC: a. C07102401-F-Imp1 / Related Substances by HPLC: b. C07102401-F-Imp2 / Related Substances by HPLC: c. Any unspecified impurity / Related Substances by HPLC: d. Total impurities / Water Content by KF / Assay of Compound 1 by HPLC: accelerated aging 40±2° C./75±5% RH; for Assay of Compound 1 by HPLC: on anhydrous basis and solvent free basis
Excerpt: (§1) To determine the stability of the crystalline compositions prepared comprising the methods described herein, crystalline compositions comprising Compound 1 and oxalic acid were formulated. Samples of the crystalline composition comprising Compound 1-oxalic acid co-crystal were packed in a transparent low-density polyethylene (LDPE) bag, and closed by twisting the bag and tying it with a strip seal. The transparent LDPE bag was then placed in a black LDPE bag that was twisted and tied with a strip seal. The bags were then placed in a high-density polyethylene container. The samples were then subjected to accelerated aging conditions (40±2° C./75±5% relative humidity (RH)) or long-term storage conditions (25±2° C./60±5% RH). Sample stability measurements in each condition were measured at baseline (before exposure to accelerated aging conditions or long-term storage conditions), and one month, two months, and three months after exposure to said conditions. Sample stability measurements included a description of the sample's physical appearance (e.g., color and form), identification by Fourier-transform infrared spectroscopy (FT-IR), identification by X-ray powder diffraction (XRPD), water content (measured by Karl Fischer (KF) on a % weight/weight basis), identification of related substances (e.g., impurities), and high-performance liquid chromatography ((HPLC) measured on a % weight/weight on an anhydrous basis and solvent free basis). Samples of the crystalline composition comprising Compound 1-oxalic acid co-crystal prepared in Example 3 are subjected to accelerated aging conditions (40±2° C./75±5% relative humidity (RH)) or long-term storage conditions (25±2° C./60±5% RH). Sample stability measurements in each condition are measured at baseline (before exposure to accelerated aging conditions or long-term storage conditions), and four months, five months, six months, seven months, eight months, nine months, ten months, eleven months, twelve months, fourteen months, sixteen months, and eighteen months after exposure to said conditions. Sample stability measurements include a description of the sample's physical appearance (e.g., color and form), identification by Fourier-transform infrared spectroscopy (FT-IR), identification by X-ray powder diffraction (XRPD), water content (measured by Karl Fischer (KF) on a % weight/weight basis), identification of related substances (e.g., impurities), and high-performance liquid chromatography ((HPLC) measured on a % weight/weight on an anhydrous basis and solvent free basis).

[2] = Stability under long-term storage conditions (25±2° C./60±5% RH); type: physicochemical; parameters: key to Related Substances by HPLC: a. C07102401-F-Imp1 / Related Substances by HPLC: b. C07102401-F-Imp2 / Related Substances by HPLC: c. Any unspecified impurity / Related Substances by HPLC: d. Total impurities: BDRL: below disregard limit; conditions: for Description / Identification by FT-IR / Identification by XRPD / Related Substances by HPLC: a. C07102401-F-Imp1 / Related Substances by HPLC: b. C07102401-F-Imp2 / Related Substances by HPLC: c. Any unspecified impurity / Related Substances by HPLC: d. Total impurities / Water Content by KF / Assay of Compound 1 by HPLC: long-term storage 25±2° C./60±5% RH; for Assay of Compound 1 by HPLC: on anhydrous basis and solvent free basis
Excerpt: as §1

For `CCC(CC)c1cc(C)nc2c(-c3sc(N4CCOCC4)nc3Cl)c(C)nn12` [Compound 1-oxalic acid co-crystal], the Description ([1]; 1 month) was “Light yellow”, the “Identification by FT-IR” value ([1]; 1 month) was “concordant” and the “Identification by XRPD” value ([1]; 1 month) was “is consistent”. The “Related Substances by HPLC: a. C07102401-F-Imp1” value ([1]; 1 month) was “BDRL”, the “Related Substances by HPLC: b. C07102401-F-Imp2” value ([1]; 1 month) was “BDRL” and the “Related Substances by HPLC: c. Any unspecified impurity” value ([1]; 1 month) was “BDRL”. For the same molecule, the “Related Substances by HPLC: d. Total impurities” value ([1]; 1 month) was “BDRL”, the “Water Content by KF” value ([1]; 1 month) was 0.09 % w/w and the Description ([1]; 2 months) was “Light yellow”. The “Identification by FT-IR” value ([1]; 2 months) was “concordant”, the “Identification by XRPD” value ([1]; 2 months) was “is consistent” and the “Related Substances by HPLC: a. C07102401-F-Imp1” value ([1]; 2 months) was “BDRL”. For the same molecule, the “Related Substances by HPLC: b. C07102401-F-Imp2” value ([1]; 2 months) was “BDRL”, the “Related Substances by HPLC: c. Any unspecified impurity” value ([1]; 2 months) was “BDRL” and the “Related Substances by HPLC: d. Total impurities” value ([1]; 2 months) was “BDRL”. For the same molecule, the “Water Content by KF” value ([1]; 2 months) was 0.02 % w/w, the Description ([1]; 3 months) was “Light yellow” and the “Identification by FT-IR” value ([1]; 3 months) was “concordant”. The “Identification by XRPD” value ([1]; 3 months) was “is consistent”, the “Related Substances by HPLC: a. C07102401-F-Imp1” value ([1]; 3 months) was “BDRL” and the “Related Substances by HPLC: b. C07102401-F-Imp2” value ([1]; 3 months) was “BDRL”. The “Related Substances by HPLC: c. Any unspecified impurity” value ([1]; 3 months) was “BDRL”, the “Related Substances by HPLC: d. Total impurities” value ([1]; 3 months) was “BDRL” and the “Water Content by KF” value ([1]; 3 months) was 0.08 % w/w. The Description ([1]; baseline) was “Light yellow”, the “Identification by FT-IR” value ([1]; baseline) was “concordant” and the “Identification by XRPD” value ([1]; baseline) was “is consistent”. The “Related Substances by HPLC: a. C07102401-F-Imp1” value ([1]; baseline) was “BDRL”, the “Related Substances by HPLC: b. C07102401-F-Imp2” value ([1]; baseline) was “BDRL” and the “Related Substances by HPLC: c. Any unspecified impurity” value ([1]; baseline) was “BDRL”. The “Related Substances by HPLC: d. Total impurities” value ([1]; baseline) was “BDRL”, the “Water Content by KF” value ([1]; baseline) was 0.02 % w/w and the “Assay of Compound 1 by HPLC” value ([1]; 1 month) was 99.2 % w/w. For the same molecule, the “Assay of Compound 1 by HPLC” value ([1]; 2 months) was 100.1 % w/w, the “Assay of Compound 1 by HPLC” value ([1]; 3 months) was 99.2 % w/w and the “Assay of Compound 1 by HPLC” value ([1]; baseline) was 99.9 % w/w. The “Stability (overall conclusion)” value ([1]; up to 3 months at accelerated aging conditions (40±2° C./75±5% RH)) was “stable”, the Description ([2]; 1 month) was “Light yellow” and the “Identification by FT-IR” value ([2]; 1 month) was “concordant”. The “Identification by XRPD” value ([2]; 1 month) was “is consistent”, the “Related Substances by HPLC: a. C07102401-F-Imp1” value ([2]; 1 month) was “BDRL” and the “Related Substances by HPLC: b. C07102401-F-Imp2” value ([2]; 1 month) was “BDRL”. For the same molecule, the “Related Substances by HPLC: c. Any unspecified impurity” value ([2]; 1 month) was “BDRL”, the “Related Substances by HPLC: d. Total impurities” value ([2]; 1 month) was “BDRL” and the “Water Content by KF” value ([2]; 1 month) was 0.10 % w/w. For the same molecule, the Description ([2]; 2 months) was “Light yellow”, the “Identification by FT-IR” value ([2]; 2 months) was “concordant” and the “Identification by XRPD” value ([2]; 2 months) was “is consistent”. For the same molecule, the “Related Substances by HPLC: a. C07102401-F-Imp1” value ([2]; 2 months) was “BDRL”, the “Related Substances by HPLC: b. C07102401-F-Imp2” value ([2]; 2 months) was “BDRL” and the “Related Substances by HPLC: c. Any unspecified impurity” value ([2]; 2 months) was “BDRL”. For the same molecule, the “Related Substances by HPLC: d. Total impurities” value ([2]; 2 months) was “BDRL”, the “Water Content by KF” value ([2]; 2 months) was 0.03 % w/w and the Description ([2]; 3 months) was “Light yellow”. The “Identification by FT-IR” value ([2]; 3 months) was “concordant”, the “Identification by XRPD” value ([2]; 3 months) was “is consistent” and the “Related Substances by HPLC: a. C07102401-F-Imp1” value ([2]; 3 months) was “BDRL”. The “Related Substances by HPLC: b. C07102401-F-Imp2” value ([2]; 3 months) was “BDRL”, the “Related Substances by HPLC: c. Any unspecified impurity” value ([2]; 3 months) was “BDRL” and the “Related Substances by HPLC: d. Total impurities” value ([2]; 3 months) was “BDRL”. For the same molecule, the “Water Content by KF” value ([2]; 3 months) was 0.05 % w/w, the Description ([2]; baseline) was “Light yellow” and the “Identification by FT-IR” value ([2]; baseline) was “concordant”. For the same molecule, the “Identification by XRPD” value ([2]; baseline) was “is consistent”, the “Related Substances by HPLC: a. C07102401-F-Imp1” value ([2]; baseline) was “BDRL” and the “Related Substances by HPLC: b. C07102401-F-Imp2” value ([2]; baseline) was “BDRL”. For the same molecule, the “Related Substances by HPLC: c. Any unspecified impurity” value ([2]; baseline) was “BDRL”, the “Related Substances by HPLC: d. Total impurities” value ([2]; baseline) was “BDRL” and the “Water Content by KF” value ([2]; baseline) was 0.02 % w/w. For the same molecule, the “Assay of Compound 1 by HPLC” value ([2]; 1 month) was 99.2 % w/w, the “Assay of Compound 1 by HPLC” value ([2]; 2 months) was 100.1 % w/w and the “Assay of Compound 1 by HPLC” value ([2]; 3 months) was 99.2 % w/w. The “Assay of Compound 1 by HPLC” value ([2]; baseline) was 99.9 % w/w and the “Stability (overall conclusion)” value ([2]; up to 3 months at long-term storage conditions (25±2° C./60±5% RH)) was “stable”.
